Experiments:
EGFR [T790M/L858R] = EGFR [T790M/L858R] (Homo sapiens (Human), UniProt P00533, L858R/T790M); experiment: Inhibitory activity on EGFR T790M/L858R mutation kinase (LabChip peptide substrate phosphorylation); format: biochemical; conditions: EGFR [T790M/L858R] enzyme, 2 hours preincubation, ATP 1000 μM
Experimental: The phosphorylation activity on the peptide substrate of EGFR was investigated using LabChip (trademark) Systems (Caliper Life Sciences, Inc.). […] (Carna Biosciences, Inc.) was used. […] Then, the substrate and the ATP solution were added thereto, followed by reaction for 1 hour. An ATP concentration of 1000 μM was used. A reaction liquid containing the enzyme protein but no test compound (in which the DMSO alone was added as a solvent at 0.4% in place of the test compound) was prepared, followed by reaction in the same manner with or without ATP addition. […] The concentration causing 50% inhibition (IC50) was calculated for the test compound by a logistic regression method.

[1] = system: H1975 cells (EGFR T790M mutation-expressing) subcutaneous tumor; experiment: Anti-tumor test on EGFR T790M mutation-expressing H1975 cell cancer-bearing mice; format: in vivo; conditions: Mus musculus, NCI-H1975, 336 h; H1975 cancer-bearing nude mice, oral 10 mg/kg once a day for 14 days; read-out: inhibitory rate (tumor volume)
Experimental: 3×10^6 Cells of H1975 suspended in PBS were inoculated subcutaneously by injection to the back of 5-week old male […] nude mice (Charles River Laboratories Japan, Inc.). After 10 days of the inoculation, the administration of the test compound was initiated. The test was carried out in the solvent group and the test compound groups, with 5 animals per group. The test compounds were each mixed in a solvent of 0.5% aqueous methyl cellulose solution or a mixed solvent of polyethyleneglycol:N-methylpyrrolidone=90:10, and administered orally at a dose of 10 mg/kg. Administrations were performed once a day for 14 days, and the body weight and the tumor diameter were measured roughly every other day. The tumor volume was calculated using the following formula. [Tumor volume (mm^3)]=[Tumor major axis (mm)]×[Tumor minor axis (mm)]^2×0.5

[2] = system: Ba/F3 cells expressing EGFR T790M/del19 mutation kinase; experiment: Inhibition of EGFR T790M/del19 mutation kinase-dependent cell proliferation (Cell Titer-Glo); format: cell-based; conditions: Mus musculus, BaF3, 48 h; Ba/F3 cells expressing EGFR T790M/del19, cultured 2 days
Experimental: (§1) In a 96-well plate (Iwaki), Ba/F3 cells were seeded at 500 cells per well in an RPMI1640 medium (Invitrogen) containing 10% fetal bovine serum, followed by the addition of the test compound (final concentrations ranging from 1 μM to 0.1 nM) and DMSO which was a solvent of the test compound as a negative control. In the presence of 5% CO2, the cells were cultured at 37° C. for 2 days. A cell counting reagent (Cell Titer-Glo; Promega) was added thereto, and the light emitting intensity was measured using a luminometer (Envison or ARVO; PerkinElmer Inc.). […] The inhibitory rate of the test compound was calculated and the concentration causing 50% inhibition (IC50 value) was determined by a logistic regression method.

[3] = system: Ba/F3 cells expressing EGFR T790M/L858R mutation kinase; experiment: Inhibition of EGFR T790M/L858R mutation kinase-dependent cell proliferation (Cell Titer-Glo); format: cell-based; conditions: Mus musculus, BaF3, 48 h, cultured 2 days
Experimental: as §1

Chain of EGFR [T790M/L858R] (P00533 25-1210 T790M/L858R): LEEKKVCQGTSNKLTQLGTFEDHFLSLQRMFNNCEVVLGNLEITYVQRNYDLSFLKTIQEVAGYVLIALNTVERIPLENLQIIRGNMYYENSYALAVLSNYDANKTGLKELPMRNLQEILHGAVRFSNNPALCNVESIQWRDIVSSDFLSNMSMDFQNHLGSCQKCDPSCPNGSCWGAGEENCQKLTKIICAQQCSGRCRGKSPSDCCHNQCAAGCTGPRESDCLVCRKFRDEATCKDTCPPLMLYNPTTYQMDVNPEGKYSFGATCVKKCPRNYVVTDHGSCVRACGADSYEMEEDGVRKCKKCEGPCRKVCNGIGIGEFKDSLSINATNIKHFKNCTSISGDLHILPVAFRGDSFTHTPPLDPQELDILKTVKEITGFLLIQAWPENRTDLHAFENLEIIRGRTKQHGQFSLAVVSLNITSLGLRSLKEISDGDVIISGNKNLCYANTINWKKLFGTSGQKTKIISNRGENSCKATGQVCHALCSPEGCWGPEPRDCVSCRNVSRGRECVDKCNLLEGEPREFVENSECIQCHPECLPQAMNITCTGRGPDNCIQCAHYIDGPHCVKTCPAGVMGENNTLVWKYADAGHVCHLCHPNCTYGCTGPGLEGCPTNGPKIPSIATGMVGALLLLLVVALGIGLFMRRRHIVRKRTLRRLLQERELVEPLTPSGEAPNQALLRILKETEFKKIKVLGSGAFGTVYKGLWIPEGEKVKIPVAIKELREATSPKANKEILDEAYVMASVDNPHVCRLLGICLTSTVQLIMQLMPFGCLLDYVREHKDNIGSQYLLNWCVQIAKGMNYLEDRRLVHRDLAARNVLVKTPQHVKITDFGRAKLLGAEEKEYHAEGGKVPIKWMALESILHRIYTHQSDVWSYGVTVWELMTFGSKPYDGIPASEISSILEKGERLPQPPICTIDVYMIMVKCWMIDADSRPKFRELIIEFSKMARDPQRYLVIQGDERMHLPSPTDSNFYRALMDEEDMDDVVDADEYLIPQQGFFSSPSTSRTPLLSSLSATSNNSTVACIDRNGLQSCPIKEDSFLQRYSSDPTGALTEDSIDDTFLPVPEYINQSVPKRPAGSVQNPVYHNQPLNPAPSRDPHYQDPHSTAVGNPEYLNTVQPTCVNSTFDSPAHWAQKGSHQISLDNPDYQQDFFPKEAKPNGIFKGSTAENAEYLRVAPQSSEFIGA

IC50 (EGFR [T790M/L858R]) | IC50 [2] | IC50 [3] | SMILES | inhibition in vivo at 10 mg/kg [1]
1.3 nM |  |  | C=CC(=O)N1CCC[C@@H](Oc2nc(Nc3ccc(N4CCC(N5CCN(C)CC5)CC4)cc3)c(C(N)=O)nc2CC)C1 [Example 79] | 30%
1.5 nM |  |  | C=CC(=O)Nc1ccc(F)c(Oc2nc(Nc3ccc(N4CCN(C)CC4)cc3)c(C(N)=O)nc2CC)c1 [Example 82] | 84%
 | 0.51 nM |  | C=CC(=O)Nc1cccc(Oc2nc(Nc3ccc(N4CCN(CC)CC4)cc3)c(C(N)=O)nc2CC)c1 [Example 43] | 
 | 0.48 nM |  | C=CC(=O)N1CCC(c2nc(Nc3ccc(N4CCC(N5CCN(C)CC5)CC4)c(C)c3)c(C(N)=O)nc2CC)CC1 [Example 24] | 100%
1.2 nM | 0.77 nM | 1.1 nM | C=CC(=O)Nc1cccc(Oc2nc(Nc3ccc(N4CCN(C)CC4)cc3)c(C(N)=O)nc2CC)c1C [Example 15] | 41%
1.2 nM |  |  | C=CC(=O)N1CCC[C@@H](Oc2nc(Nc3ccc(N4CCC(N5CCN(C)CC5)CC4)c(C)c3)c(C(N)=O)nc2CC)C1 [Example 80] | 27%
1.4 nM | 8.8 nM | 17 nM | CCc1nc(C(N)=O)c(Nc2ccc(N3CCN(C)CC3)cc2)nc1Oc1cccc(NC(=O)/C=C/CN(C)C)c1 [Example 3, 5-(3-{[(2E)-4-(dimethylamino)buta-2-enoyl]amino}phenoxy)-6-ethyl-3-{[4-(4-methylpiperazin-1-yl)phenyl]amino}pyrazine-2-carboxamide] | 
1.3 nM | 1.4 nM | 2.2 nM | C=CC(=O)Nc1cccc(Oc2nc(Nc3ccc(N4CCN(C)CC4)cc3)c(C(N)=O)nc2CC)c1 [Example 1, 5-[3-(acryloylamino)phenoxy]-6-ethyl-3-{[4-(4-methylpiperazin-1-yl)phenyl]amino}pyrazine-2-carboxamide] | 24%
1.3 nM | 1.6 nM | 2 nM | C=CC(=O)Nc1cccc(Oc2nc(Nc3cnn(C4CCN(C)CC4)c3)c(C(N)=O)nc2C(C)C)c1 [Example 56] | 
1.2 nM | 1.3 nM | 1.4 nM | C=CC(=O)Nc1cccc(Oc2nc(Nc3ccc(OC)c(N4CCN(C)CC4)c3)c(C(N)=O)nc2CC)c1 [Example 42] | 
1.7 nM | 3.2 nM | 4.5 nM | C=CC(=O)N1CC[C@@H](Oc2nc(Nc3ccc(N4CCC(N5CCN(C)CC5)CC4)cc3)c(C(N)=O)nc2CC)C1 [Example 54] | 74%
1.1 nM | 0.52 nM | 0.92 nM | C=CC(=O)Nc1cccc(Oc2cnc(C(N)=O)c(Nc3ccc(N4CCN(C)CC4)cc3)n2)c1 [Example 26] | 
 | 0.42 nM |  | C=CC(=O)Nc1cccc(Oc2nc(Nc3ccc(N4CCN(C)[C@H](C)C4)cc3)c(C(N)=O)nc2CC)c1 [Example 64] | 28%
 | 0.66 nM |  | C=CC(=O)Nc1cccc(Oc2nc(Nc3ccc(N4CCN(C)[C@@H](C)C4)cc3)c(C(N)=O)nc2CC)c1 [Example 63] | 
